Experimental data: article PMC5085765, “Discovery of Potent Carbonic Anhydrase and Acetylcholinesterase Inhibitors: 2-Aminoindan β-Lactam Derivatives” (International Journal of Molecular Sciences, 2016)

Experiments:
hCA I = biological target: T1, hCA I (Homo sapiens, UniProt P00915); test: hCA I inhibition, esterase assay with p-nitrophenylacetate as substrate; assay type: biochemical; conditions: NPA substrate; for Ki: Lineweaver-Burk plots; for IC50: purified from human erythrocytes
T1 construct: from tissue; host or cells: human erythrocytes
T1 sequence (P00915 whole entry): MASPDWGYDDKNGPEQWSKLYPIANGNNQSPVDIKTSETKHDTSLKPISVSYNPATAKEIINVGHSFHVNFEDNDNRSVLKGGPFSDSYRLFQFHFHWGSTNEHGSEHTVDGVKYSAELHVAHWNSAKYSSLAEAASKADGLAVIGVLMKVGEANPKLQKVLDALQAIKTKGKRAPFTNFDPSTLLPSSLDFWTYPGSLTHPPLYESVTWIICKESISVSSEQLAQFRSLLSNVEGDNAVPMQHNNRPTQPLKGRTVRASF
Protocol: (§1) Erythrocytes were obtained from the Research Hospital at Atatürk University. The red cells were haemolysed with ice-cold water after washing with 0.9% NaCl. The hemolysate was applied to the prepared Sepharose-4B-tyrosine-sulfanylamide affinity gel. Both CA isoenzymes were purified by Sepharose-4B-L-tyrosine-sulfanilamide affinity chromatography in a single step [58, 59, 60]. Sepharose-4B-L-tyrosine-sulfanilamide was prepared according to a previous method. Thus, homogenate solution acidity was adjusted and supernatant was transferred to the previously prepared Sepharose-4B-L-tyrosine-sulphanilamide affinity column. The proteins flow in the column eluates was spectrophotometrically determined at 280 nm. All purification steps were performed at 4 °C. Protein quantity was determined at 595 nm according to the Bradford method. Bovine serum albumin was used as the standard protein [64, 65, 66]. To monitor purification of both isoenzymes, sodium dodecyl sulphate-polyacrylamide gel electrophoresis (SDS-PAGE) was used according to the procedure of Laemmli. In this application, the imaging method was performed in 10% and 3% acrylamide for the running and the stacking gel, respectively, with 0.1% SDS [68, 69, 70].
(§2) Enzyme activity was determined hydrolysis of p-nitrophenylacetate (PNA) to p-nitrophenolate at 348 nm according to the method of Verpoorte et al. and described previously. The inhibitory effects of β-lactam derivatives 2a–k were examined. To obtain the half maximal inhibitory concentration (IC50) values, CA I, and II activity was measured in the presence of β-lactam derivatives at different cuvette concentrations. Activity (%)-[β-lactam] graph was drawn for each of the β-lactam derivatives 2a–k. To determine Ki values, three different β-lactam derivative concentrations were tested. In these experiments, different substrate (PNA) concentrations were used and Lineweaver-Burk curves were drawn as previously described.

hCA II = biological target: T2, hCA II (Homo sapiens, UniProt P00918); test: hCA II inhibition, esterase assay with p-nitrophenylacetate as substrate; assay type: biochemical; conditions: NPA substrate; for Ki: Lineweaver-Burk plots; for IC50: purified from human erythrocytes
T2 construct: from tissue; host or cells: human erythrocytes
Protocol: as §1, §2

CC(=O)O[C@@H]1C(=O)N(C2Cc3ccccc3C2)[C@@H]1c1ccccc1 (relative stereo) [Compound 2a, (3S*,4R*)-1-(2,3-Dihydro-1H-inden-2-yl)-2-oxo-4-phenylazetidin-3-yl acetate]
Ki (hCA I): 0.44 ± 0.115 nM | IC50 (hCA I): 0.612 nM | Ki (hCA II): 3.54 ± 0.405 nM | IC50 (hCA II): 5.21 nM

COc1cccc([C@@H]2[C@H](OC(C)=O)C(=O)N2C2Cc3ccccc3C2)c1 (relative stereo) [Compound 2b, (3S*,4R*)-1-(2,3-Dihydro-1H-inden-2-yl)-2-(3-methoxyphenyl)-4-oxoazetidin-3-yl acetate]
Ki (hCA I): 1.41 ± 0.547 nM | IC50 (hCA I): 2.3 nM | Ki (hCA II): 3.15 ± 1.14 nM | IC50 (hCA II): 6.42 nM

CC(=O)O[C@@H]1C(=O)N(C2Cc3ccccc3C2)[C@@H]1c1ccc(C)cc1 (relative stereo) [Compound 2c, (3S*,4R*)-1-(2,3-Dihydro-1H-inden-2-yl)-2-oxo-4-p-tolylazetidin-3-yl acetate]
Ki (hCA I): 1.5 ± 0.657 nM | IC50 (hCA I): 2.11 nM | Ki (hCA II): 2.96 ± 0.157 nM | IC50 (hCA II): 3.71 nM

CC(=O)O[C@@H]1C(=O)N(C2Cc3ccccc3C2)[C@@H]1c1cccc(C)c1 (relative stereo) [Compound 2d, (3S*,4R*)-1-(2,3-Dihydro-1H-inden-2-yl)-2-oxo-4-m-tolylazetidin-3-yl acetate]
Ki (hCA I): 1.49 ± 0.29 nM | IC50 (hCA I): 0.231 nM | Ki (hCA II): 3.26 ± 0.708 nM | IC50 (hCA II): 4.18 nM

CC(=O)O[C@@H]1C(=O)N(C2Cc3ccccc3C2)[C@@H]1c1cccc(Cl)c1 (relative stereo) [Compound 2e, (3S*,4R*)-2-(3-Chlorophenyl)-1-(2,3-dihydro-1H-inden-2-yl)-4-oxoazetidin-3-yl acetate]
Ki (hCA I): 6.29 ± 2.07 nM | IC50 (hCA I): 3.98 nM | Ki (hCA II): 8.34 ± 3.53 nM | IC50 (hCA II): 5.83 nM

CC(=O)O[C@@H]1C(=O)N(C2Cc3ccccc3C2)[C@@H]1c1ccc(Cl)c(Cl)c1 (relative stereo) [Compound 2f, (3S*,4R*)-2-(3,4-Dichlorophenyl)-1-(2,3-dihydro-1H-inden-2-yl)-4-oxoazetidin-3-yl acetate]
Ki (hCA I): 1.16 ± 0.514 nM | IC50 (hCA I): 1.63 nM | Ki (hCA II): 1.5 ± 0.421 nM | IC50 (hCA II): 5.97 nM

CC(=O)O[C@@H]1C(=O)N(C2Cc3ccccc3C2)[C@@H]1c1cccc(Br)c1 (relative stereo) [Compound 2g, (3S*,4R*)-2-(3-Bromophenyl)-1-(2,3-dihydro-1H-inden-2-yl)-4-oxoazetidin-3-yl acetate]
Ki (hCA I): 0.35 ± 0.105 nM | IC50 (hCA I): 0.652 nM | Ki (hCA II): 3.39 ± 1.16 nM | IC50 (hCA II): 3.81 nM

CC(=O)O[C@@H]1C(=O)N(C2Cc3ccccc3C2)[C@@H]1c1ccccc1Br (relative stereo) [Compound 2h, (3S*,4R*)-2-(2-Bromophenyl)-1-(2,3-dihydro-1H-inden-2-yl)-4-oxoazetidin-3-yl acetate]
Ki (hCA I): 0.91 ± 0.143 nM | IC50 (hCA I): 2.65 nM | Ki (hCA II): 2.19 ± 0.921 nM | IC50 (hCA II): 5.21 nM

CC(=O)O[C@@H]1C(=O)N(C2Cc3ccccc3C2)[C@@H]1c1ccccc1[N+](=O)[O-] (relative stereo) [Compound 2j, (3S*,4R*)-1-(2,3-Dihydro-1H-inden-2-yl)-2-(2-nitrophenyl)-4-oxoazetidin-3-yl acetate]
Ki (hCA I): 1.09 ± 0.136 nM | IC50 (hCA I): 4.81 nM | Ki (hCA II): 2.88 ± 1.17 nM | IC50 (hCA II): 5.02 nM

CC(=O)O[C@@H]1C(=O)N(C2Cc3ccccc3C2)[C@@H]1c1ccc(F)cc1 (relative stereo) [Compound 2k, (3S*,4R*)-1-(2,3-Dihydro-1H-inden-2-yl)-2-(4-fluorophenyl)-4-oxoazetidin-3-yl acetate]
Ki (hCA I): 0.94 ± 0.43 nM | IC50 (hCA I): 2.5 nM | Ki (hCA II): 1.34 ± 0.539 nM | IC50 (hCA II): 6.86 nM

CC(=O)OC1C(=O)N(C2Cc3ccccc3C2)C1c1ccc(Br)cc1 (stereo not drawn) [Compound 2ı, (3S*,4R*)-2-(4-Bromophenyl)-1-(2,3-dihydro-1H-inden-2-yl)-4-oxoazetidin-3-yl acetate]
Ki (hCA I): 0.97 ± 0.245 nM | IC50 (hCA I): 2.55 nM | Ki (hCA II): 0.93 ± 0.295 nM | IC50 (hCA II): 4.03 nM
